ChEMBL document CHEMBL1201862, “PubChem BioAssay data set” (2004)
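Each compound was tested at five concentrations against cells in 96-well plates for 48 hours. The concentration for 50% growth inhibition is given as GI50.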 Calls of active or inactive are those of the source. Cut-off read from the data, not from the text of the source: active = GI50 up to about 1.1 µM and inactive = higher.

Experiments:
Assay in all cases: NCI anticancer screen, dose series, 48 h
[1] = tested on: 786-0
[2] = tested on: A498
[3] = tested on: A549
[4] = tested on: ACHN
[5] = tested on: CAKI-1
[6] = tested on: CCRF-CEM
[7] = tested on: COLO 205
[8] = tested on: DU-145
[9] = tested on: EKVX
[10] = tested on: HCC 2998
[11] = tested on: HCT-116
[12] = tested on: HCT-15
[13] = tested on: HL-60
[14] = tested on: HOP-62
[15] = tested on: HOP-92
[16] = tested on: HT-29
[17] = tested on: Hs-578T
[18] = tested on: IGROV-1
[19] = tested on: K562
[20] = tested on: KM12
[21] = tested on: LOX IMVI
[22] = tested on: MDA-MB-231
[23] = tested on: MDA-MB-435
[24] = tested on: MDA-N
[25] = tested on: MOLT-4
[26] = tested on: Malme-3M
[27] = tested on: NCI-H226
[28] = tested on: NCI-H23
[29] = tested on: NCI-H460
[30] = tested on: NCI-H522
[31] = tested on: NCI/ADR-RES
[32] = tested on: OVCAR-4
[33] = tested on: OVCAR-5
[34] = tested on: OVCAR-8
[35] = tested on: PC-3
[36] = tested on: RPMI-8226
[37] = tested on: RXF 393
[38] = tested on: SF-268
[39] = tested on: SF-295
[40] = tested on: SF-539
[41] = tested on: SK-MEL-28
[42] = tested on: SK-MEL-2
[43] = tested on: SK-MEL-5
[44] = tested on: SK-OV-3
[45] = tested on: SN12C
[46] = tested on: SNB-19
[47] = tested on: SNB-75
[48] = tested on: SR
[49] = tested on: SW-620
[50] = tested on: T47D
[51] = tested on: TK-10
[52] = tested on: U-251
[53] = tested on: UACC-257
[54] = tested on: UACC-62
[55] = tested on: UO-31
[56] = tested on: M14
[57] = tested on: MCF7
[58] = tested on: OVCAR-3

In the case of `CCOC(=O)CCN1C(=O)C(=O)N(c2ccc(OC)cc2)C1=S`, the GI50 [1] was > 100 µM (inactive), the GI50 [2] was > 100 µM (inactive) and the GI50 [3] was > 100 µM (inactive). For the same compound, the GI50 [4] was > 100 µM (inactive), the GI50 [5] was > 100 µM (inactive) and the GI50 [6] was > 100 µM (inactive). The GI50 [7] was > 100 µM (inactive), the GI50 [8] was > 100 µM (inactive) and the GI50 [9] was > 100 µM (inactive). For the same compound, the GI50 [10] was 69.2 µM (inactive), the GI50 [11] was > 100 µM (inactive) and the GI50 [12] was over 100 µM. The GI50 [13] was > 100 µM (inactive), the GI50 [14] was > 100 µM (inactive) and the GI50 [15] was > 100 µM (inactive). The GI50 [16] was > 100 µM (inactive), the GI50 [17] was 47.1 µM (inactive) and the GI50 [18] was > 100 µM (inactive). For the same compound, the GI50 [19] was 54.6 µM (inactive), the GI50 [20] was 39.1 µM (inactive) and the GI50 [21] was > 100 µM (inactive). The GI50 [22] was > 100 µM (inactive), the GI50 [23] was > 100 µM (inactive) and the GI50 [24] was 97.5 µM (inactive). The GI50 [25] was > 100 µM (inactive), the GI50 [26] was > 100 µM (inactive) and the GI50 [27] was 25.6 µM (inactive). The GI50 [28] was > 100 µM (inactive), the GI50 [29] was 53.5 µM (inactive) and the GI50 [30] was 14.8 µM (inactive). For the same compound, the GI50 [31] was > 100 µM (inactive), the GI50 [32] was 63 µM (inactive) and the GI50 [33] was > 100 µM (inactive). The GI50 [34] was > 100 µM (inactive), the GI50 [35] was > 100 µM (inactive) and the GI50 [36] was > 100 µM (inactive). For the same compound, the GI50 [37] was > 100 µM (inactive), the GI50 [38] was > 100 µM (inactive) and the GI50 [39] was > 100 µM (inactive). For the same compound, the GI50 [40] was 97.7 µM (inactive), the GI50 [41] was > 100 µM (inactive) and the GI50 [42] was > 100 µM (inactive). For the same compound, the GI50 [43] was > 100 µM (inactive), the GI50 [44] was > 100 µM (inactive) and the GI50 [45] was > 100 µM (inactive). The GI50 [46] was > 100 µM (inactive), the GI50 [47] was > 100 µM (inactive) and the GI50 [48] was > 100 µM (inactive). For the same compound, the GI50 [49] was > 100 µM (inactive), the GI50 [50] was > 100 µM (inactive) and the GI50 [51] was > 100 µM (inactive). For the same compound, the GI50 [52] was > 100 µM (inactive), the GI50 [53] was > 100 µM (inactive) and the GI50 [54] was 16 µM (inactive). The GI50 [55] was 56.5 µM (inactive).
`CC1(C)C2CCC3CC(CCC#N)CCC3C21C#N` (configuration not stated) was tested, and the GI50 [1] was > 100 µM (inactive), the GI50 [2] was > 100 µM (inactive) and the GI50 [3] was > 100 µM (inactive). For the same compound, the GI50 [4] was > 100 µM (inactive), the GI50 [5] was > 100 µM (inactive) and the GI50 [6] was > 100 µM (inactive). The GI50 [7] was > 100 µM (inactive), the GI50 [8] was > 100 µM (inactive) and the GI50 [9] was > 100 µM (inactive). The GI50 [10] was > 100 µM (inactive), the GI50 [11] was > 100 µM (inactive) and the GI50 [12] was over 100 µM. The GI50 [13] was > 100 µM (inactive), the GI50 [14] was > 100 µM (inactive) and the GI50 [15] was > 100 µM (inactive). For the same compound, the GI50 [16] was > 100 µM (inactive), the GI50 [17] was > 100 µM (inactive) and the GI50 [18] was > 100 µM (inactive). For the same compound, the GI50 [19] was > 100 µM (inactive), the GI50 [20] was 18 µM (inactive) and the GI50 [21] was > 100 µM (inactive). The GI50 [56] was > 100 µM (inactive), the GI50 [57] was > 100 µM (inactive) and the GI50 [22] was > 100 µM (inactive). The GI50 [23] was > 100 µM (inactive), the GI50 [24] was > 100 µM (inactive) and the GI50 [25] was > 100 µM (inactive). The GI50 [26] was > 100 µM (inactive), the GI50 [27] was > 100 µM (inactive) and the GI50 [28] was > 100 µM (inactive). For the same compound, the GI50 [29] was > 100 µM (inactive), the GI50 [30] was > 100 µM (inactive) and the GI50 [31] was > 100 µM (inactive). The GI50 [58] was > 100 µM (inactive), the GI50 [32] was > 100 µM (inactive) and the GI50 [33] was > 100 µM (inactive). For the same compound, the GI50 [34] was > 100 µM (inactive), the GI50 [35] was > 100 µM (inactive) and the GI50 [36] was > 100 µM (inactive). For the same compound, the GI50 [37] was > 100 µM (inactive), the GI50 [38] was > 100 µM (inactive) and the GI50 [39] was > 100 µM (inactive). The GI50 [40] was > 100 µM (inactive), the GI50 [41] was > 100 µM (inactive) and the GI50 [42] was > 100 µM (inactive). The GI50 [43] was > 100 µM (inactive), the GI50 [44] was > 100 µM (inactive) and the GI50 [45] was > 100 µM (inactive). For the same compound, the GI50 [46] was > 100 µM (inactive), the GI50 [48] was > 100 µM (inactive) and the GI50 [49] was > 100 µM (inactive). For the same compound, the GI50 [50] was > 100 µM (inactive), the GI50 [51] was > 100 µM (inactive) and the GI50 [52] was > 100 µM (inactive). The GI50 [53] was > 100 µM (inactive), the GI50 [54] was > 100 µM (inactive) and the GI50 [55] was > 100 µM (inactive).
